46 compounds from US20080214606A1, “Methods for the Identification and Use of Compounds Suitable for the Treatment of Drug Resistant Cancer Cells” (The Government of the United States of America as …, priority 2004, published 2008) can be followed below.

T1 sequence (P33897 whole entry): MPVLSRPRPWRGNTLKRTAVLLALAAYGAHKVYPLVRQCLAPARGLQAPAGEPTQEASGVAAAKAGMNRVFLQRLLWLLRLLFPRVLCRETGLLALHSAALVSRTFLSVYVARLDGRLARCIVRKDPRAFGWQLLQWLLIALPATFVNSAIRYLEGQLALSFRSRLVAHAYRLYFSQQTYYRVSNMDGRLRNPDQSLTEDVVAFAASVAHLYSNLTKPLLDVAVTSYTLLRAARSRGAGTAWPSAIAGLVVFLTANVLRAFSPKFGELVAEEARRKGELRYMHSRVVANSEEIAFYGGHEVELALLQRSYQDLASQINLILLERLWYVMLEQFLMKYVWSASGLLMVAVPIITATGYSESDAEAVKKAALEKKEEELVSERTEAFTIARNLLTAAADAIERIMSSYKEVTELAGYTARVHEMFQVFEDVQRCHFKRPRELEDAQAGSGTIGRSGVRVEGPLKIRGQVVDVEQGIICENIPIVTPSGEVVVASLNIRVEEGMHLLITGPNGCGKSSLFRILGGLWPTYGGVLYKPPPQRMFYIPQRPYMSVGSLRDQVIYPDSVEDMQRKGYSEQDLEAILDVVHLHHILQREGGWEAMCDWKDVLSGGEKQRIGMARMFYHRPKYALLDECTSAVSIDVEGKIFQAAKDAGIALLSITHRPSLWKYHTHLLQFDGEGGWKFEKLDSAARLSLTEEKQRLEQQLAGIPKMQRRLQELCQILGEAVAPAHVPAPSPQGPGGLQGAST

In one data set the target is ABCB1 (Homo sapiens, UniProt P08183). The experiment in a line: Correlation of ABCB1 expression with drug sensitivity across the NCI-60.
Sequence of ABCB1 (P08183 whole entry): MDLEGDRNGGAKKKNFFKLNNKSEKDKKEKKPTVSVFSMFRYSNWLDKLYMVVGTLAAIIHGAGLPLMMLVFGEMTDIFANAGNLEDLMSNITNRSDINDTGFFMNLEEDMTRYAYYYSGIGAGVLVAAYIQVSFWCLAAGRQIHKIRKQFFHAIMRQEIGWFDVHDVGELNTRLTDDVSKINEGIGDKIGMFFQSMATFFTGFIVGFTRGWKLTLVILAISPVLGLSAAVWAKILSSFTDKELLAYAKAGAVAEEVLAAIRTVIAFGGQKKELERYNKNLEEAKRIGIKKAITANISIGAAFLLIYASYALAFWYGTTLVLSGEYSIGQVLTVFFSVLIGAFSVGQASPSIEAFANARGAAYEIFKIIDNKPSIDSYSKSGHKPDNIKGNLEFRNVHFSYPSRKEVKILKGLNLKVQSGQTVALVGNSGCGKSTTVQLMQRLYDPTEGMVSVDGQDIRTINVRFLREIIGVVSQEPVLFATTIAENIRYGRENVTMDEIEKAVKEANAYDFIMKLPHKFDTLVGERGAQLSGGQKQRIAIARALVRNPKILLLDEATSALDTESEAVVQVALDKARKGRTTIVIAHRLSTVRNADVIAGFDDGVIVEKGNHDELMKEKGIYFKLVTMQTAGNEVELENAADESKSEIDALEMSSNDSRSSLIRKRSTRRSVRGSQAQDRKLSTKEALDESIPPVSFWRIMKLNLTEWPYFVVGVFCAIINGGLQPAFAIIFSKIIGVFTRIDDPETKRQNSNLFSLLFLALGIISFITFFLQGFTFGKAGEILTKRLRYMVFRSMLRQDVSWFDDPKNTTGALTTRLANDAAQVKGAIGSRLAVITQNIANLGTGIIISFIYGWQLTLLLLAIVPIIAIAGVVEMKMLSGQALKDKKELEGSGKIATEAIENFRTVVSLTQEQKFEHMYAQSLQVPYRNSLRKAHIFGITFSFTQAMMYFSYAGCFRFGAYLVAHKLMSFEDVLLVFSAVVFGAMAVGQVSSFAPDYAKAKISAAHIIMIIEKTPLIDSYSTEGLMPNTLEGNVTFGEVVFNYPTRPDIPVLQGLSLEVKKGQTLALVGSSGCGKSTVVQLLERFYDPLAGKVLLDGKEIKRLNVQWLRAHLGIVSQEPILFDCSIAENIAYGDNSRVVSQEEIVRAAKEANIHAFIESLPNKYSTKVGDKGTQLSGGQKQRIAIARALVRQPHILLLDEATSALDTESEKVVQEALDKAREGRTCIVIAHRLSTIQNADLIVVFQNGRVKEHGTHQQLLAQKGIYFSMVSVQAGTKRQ
Details: not given
Here is the method:
Expression levels are measured by real-time quantitative RT-PCR using the LightCycler RNA Amplification SYBR Green kit and a LightCycler machine (Roche Biochemicals, Indianapolis, Ind.). Specific oligonucleotide probes are designed for each of the ABC transporters using DNAStar Primer Select (DNASTAR Inc.), and they may be synthesized at Lofstrand Laboratories (Gaithersburg, Md.). When possible, the amplicons are designed to encompass exon-intron boundaries to avoid amplification of genomic DNA. Since the Syber Green assay detects accumulation of double stranded DNA, primers are selected (from a battery consisting of about 200 primers) that amplified a single product of the correct size.
RT-PCR is carried out on 150 ng total RNA, in the presence of 250 nM specific primers. Following reverse transcription (20 min at 50° C.), the PCR reaction consists of 45 cycles of denaturation (15 sec at 95° C.), annealing (30 sec at 58° C.), and elongation (30 sec at 72° C.). No-template (water) reaction mixtures are prepared as negative controls.
During PCR amplification, fluorescence emission is measured and recorded in real time by the LightCycler. Crossing point values are calculated, using the LightCycler software package, by the Fit Points analysis method, with baseline fluorescence set at 1. The SyberGreen assay measures accumulation of double-stranded products, and the appearance of primer dimers limits quantitation at high cycle numbers. […] The raw results are expressed as number of cycles to reach the crossing point. If the desired product is not detected, the corresponding value is adjusted to crossing points indicating no expression. To assess the contribution of experimental artifacts, selected cell lines are assessed in replicate.
Both sets are available at http://discover.nci.nih.gov. The two are combined to form a joint dataset that includes 1429 compounds.
To determine quantitatively how well the 47 genes cluster the cell lines by their tissues of origin, a statistical method is employed wherein the kappa statistic is used to indicate how well the observed clusters correspond to the nine tissue-of-origin classifications. […] To control the overall false type 1 error rate, both a step-down procedure (Westfall and Young, 1993, Resampling-Based Multiple Testing: Examples and Methods for p-value Adjustment (New York: Wiley)) and a step-up procedure (Reiner et al., 2003, Bioinformatics 19:368-375) were employed to adjust for multiple testing of all 47 genes simultaneously. In the Benjamini-Hochberg procedure the p-values are computed in the standard way by permutation, assuming that all distributions are exchangeable: the number of values in the permuted data with correlations over a threshold, divided by the number of compounds and by the number of permutations. In this analysis, the False Discovery Rate (q-value) at which each compound would be declared was calculated using the step-up procedure for positively correlated test statistics (again true because all correlations being compared are computed against the same ABC gene): in this procedure the first q-value for the largest correlation is the Bonferroni-corrected p-value for that gene; then further q-values are calculated as qj=max(pj*1429/j, qj-1). This procedure limits the expected proportion of false positives in the list 1, . . . , j to at most qj.
As for `O=c1cc(O)ccn1[C@@H]1O[C@H](CO)[C@@H](O)[C@H]1O` [NSC 126849], the “Pearson's Correlation Coeff” value is 0.2357. Still for that read-out and setting: the value for `NC(=O)c1[nH]nc([C@@H]2O[C@H](CO)[C@@H](O)[C@H]2O)c1O` [NSC 143095] was 0.2763. Take `Cc1cc(C)c(C2=NO[C@@H]3[C@H]2C(=O)C=C2N(Cc4ccccc4)CCO[C@@]23O)c(C)c1` [NSC 627025]: the “Correlation of antiproliferative activity with ABCB1 expression” value (from here on “Correlation … with ABCB1 expression”) came to 0.3511. On the same count and under the same terms, the value for `CSc1sc(=S)sc1SC` [NSC 627450] was 0.4454; that for `O=C1CSc2sc(=S)sc2S1` [NSC 627451] was 0.3894; that for `O=C1Sc2sc(=S)sc2SC1c1ccccc1` (centres unmarked) [NSC 627452] was 0.3534. `CCC(C)SC1SCC2C(=O)N(C)C3(CC3C)C(=O)OCC(NC(=O)c3nc4ccccc4cc3O)C(=O)NC(C)C(=O)N(C)C1C(=O)N(C)C1(CC1C)C(=O)OCC(NC(=O)c1nc3ccccc3cc1O)C(=O)NC(C)C(=O)N2C` (centres unmarked) [NSC 630678] yielded a Correlation of −0.7029.

Turning to `O=C(CCc1nnc2s/c(=C\c3ccc4c(c3)OCO4)c(=O)n12)Nc1cc(Cl)ccc1Cl` [NSC 635543], the “Correlation … with ABCB1 expression” value is on record as 0.3514. For `C[N+]1(C)C/C(=C\C=C\c2ccccc2)C(=O)/C(=C/C=C/c2ccccc2)C1.[I-]` [NSC 636679], the Correlation is −0.5530.

Take `c1cc(-c2cn3ccsc3n2)ccn1` [NSC 641288]: the “Correlation … with ABCB1 expression” value is 0.3643. For `CC(C)OC(=S)Nc1ccc(Cl)c(/C=N/OC(C)(C)C)c1` [NSC 645542], the “Correlation … with ABCB1 expression” value was 0.3924.

For `O=C1c2c(nc3ccccc3c2-c2ccccc2)CN1Nc1ccccn1` [NSC 648072], the “Correlation … with ABCB1 expression” value amounted to 0.3579. With `CC[C@]12C=CCN3CCC4(c5cc([C@@]6(C(=O)OC)CC7CN(CCc8c6[nH]c6ccccc86)C[C@@H]6CCC[C@H]76)c(OC)cc5N(C)C4[C@](O)(C(=O)OC)C1OC(C)=O)C32.COS(=O)(=O)O` (some centres unmarked) [NSC 651727], the Correlation is given as −0.3910.

On to `[Se]=P(c1ccccc1)(c1ccccc1)c1ccc(C(c2ccccc2)=P(c2ccccc2)(c2ccccc2)c2ccccc2)cc1` [NSC 676864], for which the Correlation is reported as −0.6546. On to `[N-]=[N+]=CC(=O)OC1Cc2ccccc2C1` [NSC 679285], for which the “Correlation … with ABCB1 expression” value stood at 0.3504. On to `COc1c(C)c(C/C=C(\C)CCCCO[Si](c2ccccc2)(c2ccccc2)C(C)(C)C)c(OC)c(OC)c1OC` [NSC 687141], for which the “Correlation … with ABCB1 expression” value was found to be 0.3774. Consider `CCCCCCOc1ccc(C(=O)N(C)O)cc1` [NSC 692758], for which the “Pearson's Correlation Coeff” value is 0.4825. Still for that read-out and setting: to `CN(O)C(=O)c1ccc(OCc2cccc(Cl)c2)cc1` [NSC 692759] belongs 0.4149. For `CC(/C=N/NC(=S)N1CCCCC1)=N/NC(=S)N1CCCCC1` [NSC 693326], the “Correlation … with ABCB1 expression” value worked out at 0.3892.

`COC(=O)CN(CC(O)C(NC(C)=O)C(O)C=O)C(=O)OCc1ccccc1` (centres unmarked) [NSC 693931]: the “Correlation … with ABCB1 expression” value turned out to be 0.3708. As for `CC(C)=CCC[C@@H](C)C1=C(N)C(=O)C(C)=C(O)C1=O` [NSC 697124], the “Correlation … with ABCB1 expression” value is reported as 0.4636. Still for that read-out and setting: the value for `CC(C)=CCC[C@@H](C)C1=C(O)C(Nc2ccccc2Cl)=C(C)C(=O)C1=O` [NSC 697132] was 0.3558; that for `CCC1=NC(N/N=C/c2ccccc2O)=N/C1=C\c1ccccc1O` [NSC 697678] was 0.4314. Still for that read-out and setting: the value for `O=C(/C=C/c1ccccc1)CSc1nc2ccc(I)cc2c(=O)n1Cc1ccccc1` [NSC 715729] was 0.3544.

Regarding `COc1cccc2c1C(=O)c1c(O)c3c(c(O)c1C2=O)C[C@@](O)(C(=O)CO)C[C@@H]3O[C@H]1C[C@H](N)[C@H](O)[C@H](C)O1` [doxorubicin, reference compound], the “Relationship between drug sensitivity and ABCB1 expression (in words)” value was “striking inverse correlations”. As to `COC1=C2C[C@@H](C)C[C@H](OC)[C@H](O)[C@@H](C)/C=C(\C)[C@H](OC(N)=O)[C@@H](OC)/C=C\C=C(/C)C(=O)NC(=CC1=O)C2=O` [geldamycin, reference compound], the “Relationship between drug sensitivity and ABCB1 expression (in words)” value was “striking inverse correlations”. The same measure, in the same setting: the value for `NC(=O)NO` [hydroxyurea, reference compound] was “non-correlated or positively correlated”.

Take `CN(Cc1cnc2nc(N)nc(N)c2n1)c1ccc(C(=O)N[C@@H](CCC(=O)O)C(=O)O)cc1` [methotrexate, reference compound]: the “Relationship between drug sensitivity and ABCB1 expression (in words)” value is listed as “non-correlated or positively correlated”. Regarding `CC(=O)O[C@H]1C(=O)[C@@]2(C)[C@H]([C@H](OC(=O)c3ccccc3)[C@]3(O)C[C@H](OC(=O)[C@H](O)[C@@H](NC(=O)c4ccccc4)c4ccccc4)C(C)=C1C3(C)C)[C@]1(OC(C)=O)CO[C@@H]1C[C@@H]2O` [paclitaxel, reference compound], the “Relationship between drug sensitivity and ABCB1 expression (in words)” value is “striking inverse correlations”. On the same count and under the same terms, the value for `CC[C@]1(O)C[C@@H]2CN(CCc3c([nH]c4ccccc34)[C@@](C(=O)OC)(c3cc4c(cc3OC)N(C)[C@H]3[C@@](O)(C(=O)OC)[C@H](OC(C)=O)[C@]5(CC)C=CCN6CC[C@]43[C@@H]65)C2)C1` [vinblastine, reference compound] was “striking inverse correlations”.

The same data set, now with this note: set of 118 compounds with putatively known mechanisms of action, FIG. 2.
As for `C(=N\NC1=NCCN1)/c1c2ccccc2c(/C=N/NC2=NCCN2)c2ccccc12` [bisantrene, reference compound], the “Relationship between drug sensitivity and ABCB1 expression (in words)” value is “striking inverse correlations”.

Another data set addresses T1, ABCD1 (Homo sapiens, UniProt P33897).
T1 construct: profiled in 60 diverse cancer cell lines (the NCI-60) using real-time RT-PCR; endogenous in cells; host or cells: NCI-60 human cancer cell lines
The experiment in a line: Correlation of ABCD1 expression with drug sensitivity across the NCI-60. The format is cell-based. The note with it: Pearson correlation of ABCD1 expression with sensitivity of the 60 cell lines; 1429 compounds; inverse, p < 0.0001.
Description: Expression levels are measured by real-time quantitative RT-PCR using the LightCycler RNA Amplification SYBR Green kit and a LightCycler machine (Roche Biochemicals, Indianapolis, Ind.). […] When possible, the amplicons are designed to encompass exon-intron boundaries to avoid amplification of genomic DNA. Since the Syber Green assay detects accumulation of double stranded DNA, primers are selected (from a battery consisting of about 200 primers) that amplified a single product of the correct size.
During PCR amplification, fluorescence emission is measured and recorded in real time by the LightCycler. Crossing point values are calculated, using the LightCycler software package, by the Fit Points analysis method, with baseline fluorescence set at 1. The SyberGreen assay measures accumulation of double-stranded products, and the appearance of primer dimers limits quantitation at high cycle numbers. The specificity of amplified products is verified by melting-curve analysis and agarose gel electrophoresis (not shown). The raw results are expressed as number of cycles to reach the crossing point. If the desired product is not detected, the corresponding value is adjusted to crossing points indicating no expression. To assess the contribution of experimental artifacts, selected cell lines are assessed in replicate.
Compound `COc1ccc2[nH]c3c(C)c4ccncc4c(C)c3c2c1` [NSC 69187] yielded a Correlation of −0.5711. `Cc1c2ccncc2c(C)c2c1[nH]c1ccccc12` [NSC 71795] had a Correlation of −0.4642. Still for that read-out and setting: to `Nc1nc(=S)c2ncn(C3CC(O)C(CO)O3)c2[nH]1` (centres unmarked) [NSC 71851] belongs −0.4425; to `O=c1cc(O)ccn1[C@@H]1O[C@H](CO)[C@@H](O)[C@H]1O` [NSC 126849], −0.4214; to `NC(=O)c1[nH]nc([C@@H]2O[C@H](CO)[C@@H](O)[C@H]2O)c1O` [NSC 143095], −0.5337. The same measure, in the same setting: to `Cc1c2ccncc2c(C)c2c1[nH]c1ccc(OCCN(C)C)cc12` [NSC 338258] belongs −0.5453; to `COc1ccc2c(c1)-c1nn(CCCN(C)C)c3ccc([N+](=O)[O-])c(c13)N2` [NSC 627168], −0.4599; to `OCCOc1ccc(-c2cc(-c3ccccn3)nc(-c3ccccn3)c2)cc1` [NSC 640499], −0.4694. For `CCN(CC)CCn1ccc(=O)c2cc3c(=O)ccn(CCN(CC)CC)c3c(C)c21` [NSC 645161], the Correlation is reported as −0.5134. `CCN(CC)CCNc1ccc2ncn3c4ccc(OC)cc4c(=O)c1c23` [NSC 645812]: the Correlation is reported as −0.4825. Same read-out and setting: the value for `COc1ccc2c(c1)c(=O)c1c(NCCCN(C)C)ccc3ncn2c31.Cl` [NSC 645813] was −0.4824. On the same count and under the same terms, the value for `CCN(CC)CCCNc1ccc2nnn3c4ccc(O)cc4c(=O)c1c23` [NSC 645814] was −0.4346; that for `CN(C)CCCNc1ccc2nnn3c4ccc(O)cc4c(=O)c1c23` [NSC 645830] was −0.4258; that for `CCN(CC)CCCNc1ncc(C)c2c1c1ccc3c(O)cccc3c1n2C` [NSC 653438] was −0.4252. Turning to `c1ccc2c(c1)Nc1cccc3c1c-2nc1ccccc13` [NSC 670692], the Correlation is −0.4001.

For `O=C1/C(=C/c2ccc(F)cc2)CNC/C1=C\c1ccc(F)cc1` [NSC 685126], the Correlation is given as −0.4464. Regarding `CN(C)CCCNc1ccc2c(=O)n(CCN(C)C)c(=O)n3c4ccccc4c(=O)c1c23` [NSC 687308], the Correlation is given as −0.4236. Compound `CCCCCCOc1ccc(C(=O)N(C)O)cc1` [NSC 692758] displayed a Correlation of −0.5012. `CN(O)C(=O)c1ccc(OCc2cccc(Cl)c2)cc1` [NSC 692759] had a Correlation of −0.5034.
